Test results from PubChem BioAssay AID720713 (Broad Institute, 2013).
The source made the active and inactive calls. The rule behind the calls is not given here.

How the values were obtained:
[1] = viability loss in A549 lung cancer cells – cell-based, plate reader, dry powder, set 2, dose response (AID 720713); conditions: A549 cytotoxicity, plate reader
[2] = test system: A549 cytotoxicity, plate reader; assay: as above

CN(C(=O)COc1ccccc1C(=O)NCCOc1ccccc1)c1ccccc1
activity change, negative = cytotoxicity ([1]; at 12 µM (top of the series)): 2.59% (inactive)

Cc1ccc2cc(CN(CC3CCCO3)C(=O)NC3CCCCC3)c(=O)[nH]c2c1C (configuration not stated)
activity change, negative = cytotoxicity ([1]; at 26 µM (top of the series)): 106% (inactive)

COc1cc(CN2CCc3ccccc3C2)ccc1O
activity change, negative = cytotoxicity ([1]; at 26 µM (top of the series)): -37.2% (inactive)

CCCc1nnc(NC(=O)c2nc(S(=O)(=O)Cc3ccc(C)cc3)ncc2Cl)s1
activity change, negative = cytotoxicity ([1]; at 26 µM (top of the series)): 8.63% (inactive)

CC(C)(C)NC(=O)CSc1nc2ccc(NC(=O)CSc3nnnn3Cc3ccccc3)cc2s1
activity change, negative = cytotoxicity ([1]; at 26 µM (top of the series)): 16.7% (inactive)

O=C1CSc2ccc(C(=O)Nc3cccc(S(=O)(=O)Nc4ccc(Br)cc4)c3)cc2N1
activity change, negative = cytotoxicity ([1]; at 26 µM (top of the series)): 12% (inactive)

Cc1cc2c(cc(C(=O)N3CCC(C(=O)NC4CCCC4)CC3)n2Cc2c(F)cccc2Cl)o1
activity change, negative = cytotoxicity ([1]; at 26 µM (top of the series)): -19.5% (inactive)

COc1ccc(NS(=O)(=O)c2ccc(C(=O)N3CCCCCC3)cc2)cc1
activity change, negative = cytotoxicity ([1]; at 26 µM (top of the series)): 22% (inactive)

O=C(c1nnsc1S(=O)c1ccc(Cl)cc1)N1CCOCC1 (configuration not stated)
activity change, negative = cytotoxicity ([1]; at 26 µM (top of the series)): -41.1% (inactive)

CC(=O)Nc1cccc(NC(=O)CSc2ncc(-c3ccc(Cl)cc3)n2Cc2ccco2)c1
activity change, negative = cytotoxicity ([1]; at 26 µM (top of the series)): 11.6% (inactive)

COc1ccc(NC(=O)c2nc(S(=O)(=O)Cc3cccc(C)c3)ncc2Cl)c(OC)c1
AC50 [2]: > 52 µM (inactive)

CCOC(=O)C1CCN(C(=O)c2ccc(OCC(=O)Nc3cccc(C(F)(F)F)c3)c(OC)c2)CC1
activity change, negative = cytotoxicity ([1]; at 26 µM (top of the series)): -17.5% (inactive)

CCOC(=O)c1ccc(NC(=O)Cn2ncc(Cl)c(Cl)c2=O)cc1
activity change, negative = cytotoxicity ([1]; at 26 µM (top of the series)): -6.56% (inactive)

CN(CC(=O)Nc1cccc(S(=O)(=O)N2CCOCC2)c1)CC(=O)Nc1ccc(Cl)c(C(F)(F)F)c1
activity change, negative = cytotoxicity ([1]; at 26 µM (top of the series)): 8.78% (inactive)

COc1cc2ncnc(N[C@H](C)c3ccccc3)c2cc1OC
activity change, negative = cytotoxicity ([1]; at 26 µM (top of the series)): 10.2% (inactive)

CN(C)c1nc(-c2ccccn2)nnc1-c1ccccc1
AC50 [2]: 25.6 µM

CN(C)S(=O)(=O)c1cccc(NC(=O)c2cccc(S(=O)(=O)N3CCc4ccccc43)c2)c1
activity change, negative = cytotoxicity ([1]; at 26 µM (top of the series)): -0.758% (inactive)

CC(C)[C@H](NC(=O)OC(C)(C)C)c1nnc(S(=O)(=O)Cc2c(F)cccc2Cl)o1
activity change, negative = cytotoxicity ([1]; at 26 µM (top of the series)): 22.5% (inactive)

CC(=O)N1CCN(C(=O)CCc2cc(C(C)(C)C)c(O)c(C(C)(C)C)c2)CC1
activity change, negative = cytotoxicity ([1]; at 26 µM (top of the series)): -4.62% (inactive)

COc1ccc2c(c1)c(CC(=O)Nc1cc(C)ccc1C)c(C)n2C(=O)c1ccc(Cl)cc1
activity change, negative = cytotoxicity ([1]; at 26 µM (top of the series)): -1.36% (inactive)

Cc1cc(N2CCCC2=O)cc(C)c1S(=O)(=O)NCCOc1ccc(C(C)(C)C)cc1
activity change, negative = cytotoxicity ([1]; at 26 µM (top of the series)): 11% (inactive)

O=c1c2ccccc2nc2n1C(CSCc1ccc(Cl)cc1Cl)CS2 (configuration not stated)
activity change, negative = cytotoxicity ([1]; at 26 µM (top of the series)): 6.09% (inactive)

Fc1ccc(-n2nnnc2-c2cnc(-c3cccs3)nc2C(F)(F)F)cc1
activity change, negative = cytotoxicity ([1]; at 26 µM (top of the series)): 2.19% (inactive)

COc1ccc(Nc2nc(N3CCCCC3)c3ccccc3n2)cc1
activity change, negative = cytotoxicity ([1]; at 26 µM (top of the series)): 5.38% (inactive)

COc1ccccc1N1CCN(c2ncc(C(=O)N3CCN(c4cccc(Cl)c4)CC3)c3ccccc23)CC1
activity change, negative = cytotoxicity ([1]; at 26 µM (top of the series)): 4.47% (inactive)

CCOC(=O)C1(Cc2ccc(Cl)cc2)CCN(C(C)Cc2ccc(O)c(OC)c2)CC1 (configuration not stated)
activity change, negative = cytotoxicity ([1]; at 26 µM (top of the series)): 1.75% (inactive)

Nc1nonc1C(=O)NCCNCc1cc(Br)ccc1OCc1ccc(F)cc1
activity change, negative = cytotoxicity ([1]; at 26 µM (top of the series)): 4.85% (inactive)
